Our source for the IC50 values is patent US20220340597A1, “HEXAHYDRO-1H-PYRAZINO[1,2-A]PYRAZINE COMPOUNDS FOR THE TREATMENT OF AUTOIMMUNE DISEASE” (Hoffmann-La Roche Inc., priority 2019, published 2022).

One experiment addresses T1, human TLR7 (Homo sapiens, UniProt Q9NYK1).
T1 construct: host or cells: HEK293 (HEK-Blue hTLR7)
T1 sequence (Q9NYK1 27-1049): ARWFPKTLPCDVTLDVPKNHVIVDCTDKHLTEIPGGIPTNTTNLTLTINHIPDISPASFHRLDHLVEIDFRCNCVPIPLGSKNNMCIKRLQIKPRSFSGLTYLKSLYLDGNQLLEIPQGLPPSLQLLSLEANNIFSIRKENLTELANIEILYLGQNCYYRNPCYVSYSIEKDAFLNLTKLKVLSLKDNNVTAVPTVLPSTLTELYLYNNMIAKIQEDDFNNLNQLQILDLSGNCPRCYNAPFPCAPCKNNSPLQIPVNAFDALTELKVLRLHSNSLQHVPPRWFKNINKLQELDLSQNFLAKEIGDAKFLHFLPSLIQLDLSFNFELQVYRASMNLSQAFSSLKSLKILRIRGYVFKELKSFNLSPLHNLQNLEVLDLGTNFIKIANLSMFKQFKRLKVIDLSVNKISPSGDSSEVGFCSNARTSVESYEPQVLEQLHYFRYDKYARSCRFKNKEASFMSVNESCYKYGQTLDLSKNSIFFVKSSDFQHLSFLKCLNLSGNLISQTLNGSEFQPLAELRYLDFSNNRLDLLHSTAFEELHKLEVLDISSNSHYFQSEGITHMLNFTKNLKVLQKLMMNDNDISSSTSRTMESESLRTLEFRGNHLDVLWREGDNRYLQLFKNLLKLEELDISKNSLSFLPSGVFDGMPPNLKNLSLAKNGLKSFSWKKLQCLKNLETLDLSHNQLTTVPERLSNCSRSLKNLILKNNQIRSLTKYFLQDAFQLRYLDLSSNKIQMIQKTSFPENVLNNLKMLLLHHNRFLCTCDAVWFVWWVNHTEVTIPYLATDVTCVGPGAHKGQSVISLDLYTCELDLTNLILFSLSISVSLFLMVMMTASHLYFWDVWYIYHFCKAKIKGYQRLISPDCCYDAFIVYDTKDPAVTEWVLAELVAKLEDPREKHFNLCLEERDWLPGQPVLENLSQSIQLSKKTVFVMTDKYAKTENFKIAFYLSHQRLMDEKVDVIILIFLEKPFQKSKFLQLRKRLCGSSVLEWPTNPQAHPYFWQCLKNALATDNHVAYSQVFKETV
The experiment is described as follows: HEK293-Blue-hTLR-7 cells assay. Format: cell-based. Particulars: HEK293-Blue-hTLR7 cells, R848 stimulation, 20 hrs, SEAP reporter; read-out: HEK/hTLR7 IC50. As to the method:
The following tests were carried out in order to determine the activity of the compounds of formula (I) and (Ia) in HEK293-Blue-hTLR-7/8/9 cells assay.
HEK293-Blue-hTLR-7 cells assay:
A stable HEK293-Blue-hTLR-7 cell line was purchased from InvivoGen (Cat. #: hkb-htlr7, San Diego, Calif., USA). These cells were originally designed for studying the stimulation of human TLR7 by monitoring the activation of NF-κB. A SEAP (secreted embryonic alkaline phosphatase) reporter gene was placed under the control of the […] minimal promoter fused to five NF-κB and AP-1-binding sites. The SEAP was induced by activating NF-κB and AP-1 via stimulating HEK-Blue hTLR7 cells with TLR7 ligands. Therefore, the reporter expression was declined by TLR7 antagonist under the stimulation of a ligand, such as R848 (Resiquimod), for incubation of 20 hrs. The cell culture supernatant SEAP reporter activity was determined using QUANTI-Blue™ kit (Cat. #: rep-qb1, Invivogen, San Diego, Calif., USA) at a wavelength of 640 nm, a detection medium that turns purple or blue in the presence of alkaline phosphatase.
Then 20 μL of the supernatant from each well was incubated with […] Quanti-blue substrate solution at 37° C. for 2 hrs and the absorbance was read at 620-655 nm using a spectrophotometer. The signaling pathway that TLR7 activation leads to downstream NF-κB activation has been widely accepted, and therefore similar reporter assay was modified for evaluating TLR7 antagonist.

A further experiment addresses T2, human TLR8 (Homo sapiens, UniProt Q9NR97).
T2 sequence (Q9NR97 27-1041): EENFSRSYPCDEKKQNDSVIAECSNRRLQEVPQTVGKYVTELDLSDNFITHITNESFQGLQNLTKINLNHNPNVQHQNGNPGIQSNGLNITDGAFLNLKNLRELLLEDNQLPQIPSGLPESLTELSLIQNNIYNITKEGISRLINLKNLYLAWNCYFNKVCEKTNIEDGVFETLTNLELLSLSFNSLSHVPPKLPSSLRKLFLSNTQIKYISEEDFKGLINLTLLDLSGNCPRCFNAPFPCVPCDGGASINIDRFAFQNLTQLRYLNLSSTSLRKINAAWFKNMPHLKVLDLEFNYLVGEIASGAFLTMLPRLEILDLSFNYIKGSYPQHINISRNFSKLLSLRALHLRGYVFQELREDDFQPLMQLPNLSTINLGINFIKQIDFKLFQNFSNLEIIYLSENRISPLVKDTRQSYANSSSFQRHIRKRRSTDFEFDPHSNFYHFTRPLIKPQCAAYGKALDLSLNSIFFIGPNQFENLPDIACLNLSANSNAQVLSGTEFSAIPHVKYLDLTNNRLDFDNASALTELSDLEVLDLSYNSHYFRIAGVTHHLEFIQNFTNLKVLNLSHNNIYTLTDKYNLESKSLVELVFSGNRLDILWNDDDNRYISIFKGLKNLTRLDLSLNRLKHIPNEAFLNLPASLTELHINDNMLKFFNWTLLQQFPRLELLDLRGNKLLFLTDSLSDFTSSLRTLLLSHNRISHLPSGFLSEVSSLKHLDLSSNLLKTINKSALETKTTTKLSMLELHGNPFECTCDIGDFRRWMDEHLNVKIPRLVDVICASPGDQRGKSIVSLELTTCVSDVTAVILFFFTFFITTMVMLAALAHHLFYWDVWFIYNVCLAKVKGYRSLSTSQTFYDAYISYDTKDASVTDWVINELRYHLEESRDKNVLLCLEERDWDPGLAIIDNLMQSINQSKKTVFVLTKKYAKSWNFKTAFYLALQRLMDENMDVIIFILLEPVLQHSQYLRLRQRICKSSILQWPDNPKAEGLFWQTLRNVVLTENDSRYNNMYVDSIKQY
The experiment is described as follows: HEK293-Blue-hTLR-8 cells assay.

Text for human TLR8: HEK293-Blue-hTLR-8 Cells Assay:
A stable HEK293-Blue-hTLR-8 cell line was purchased from InvivoGen (Cat. #: hkb-htlr8, San Diego, Calif., USA). These cells were originally designed for studying the stimulation of human TLR8 by monitoring the activation of NF-κB. A SEAP (secreted embryonic alkaline phosphatase) reporter gene was placed under the control of the IFN-β minimal promoter fused to five NF-κB and AP-1-binding sites. The SEAP was induced by activating NF-κB and AP-1 via stimulating HEK-Blue hTLR8 cells with TLR8 ligands. Therefore, the reporter expression was declined by TLR8 antagonist under the stimulation of a ligand, such as R848, for incubation of 20 hrs. The cell culture supernatant SEAP reporter activity was determined using QUANTI-Blue™ kit (Cat. #: rep-qb1, Invivogen, San Diego, Calif., USA) at a wavelength of 640 nm, a detection medium that turns purple or blue in the presence of alkaline phosphatase.

Take `[2H]c1ccc2c(N3C[C@@H]4CN(c5ncc(N6C[C@@H]7C[C@H]6CN7)cc5C)CCN4[C@@H](C)C3)ccc(C#N)c2n1` [Example 111, 5-[(4S,9aR)-8-[5-[(1S,4S)-2,5-diazabicyclo[2.2.1]heptan-2-yl]-3-methyl-2-pyridyl]-4-methyl-3,4,6,7,9,9a-hexahydro-1H-pyrazino[1,2-a]pyrazin-2-yl]-2-deuterio-quinoline-8-carbonitrile]: the IC50 on human TLR7 is 6 nM; at human TLR8 it was 5 nM.

Regarding `C[C@@H]1CN(c2ccc(C#N)c3ncccc23)C[C@@H]2CN(c3ccnc(N4CCNCC4)n3)CCN21` [Example 33, 5-[(4R,9aR)-4-methyl-8-(2-piperazin-1-ylpyrimidin-4-yl)-3,4,6,7,9,9a-hexahydro-1H-pyrazino[1,2-a]pyrazin-2-yl]quinoline-8-carbonitrile], the IC50 amounted to 10 nM on human TLR7 and 8 nM against human TLR8.

As to `[2H]c1ccc2c(N3C[C@@H]4CN(Cc5ccc(N6CCNCC6)nc5)CCN4[C@H](C)C3)ccc(C#N)c2n1` [Example 78, 5-[(4R,9aS)-4-methyl-8-[(6-piperazin-1-yl-3-pyridyl)methyl]-3,4,6,7,9,9a-hexahydro-1H-pyrazino[1,2-a]pyrazin-2-yl]-2-deuterio-quinoline-8-carbonitrile], the IC50 at human TLR7 is 35 nM; at human TLR8 it was 17 nM.

With `C[C@@H]1CN(c2ccc(C#N)c3ncccc23)C[C@@H]2CN(c3ccnc(N4CC[C@@](C)(N)C4)c3)CCN21` [Example 105, 5-[(4R,9aS)-8-[2-[(3R)-3-amino-3-methyl-pyrrolidin-1-yl]-4-pyridyl]-4-methyl-3,4,6,7,9,9a-hexahydro-1H-pyrazino[1,2-a]pyrazin-2-yl]quinoline-8-carbonitrile], the IC50 at human TLR7 came to 26 nM; at human TLR8 it was 7 nM.

Turning to `CO[C@@H]1CN(c2ccc(CCN3CCN4[C@@H](C3)CN(c3ccc(C#N)n5ncc(F)c35)C[C@H]4C)cc2)C[C@H]1N` [Example 66, 4-[(4R,9aS)-8-[2-[4-[(3R,4R)-3-amino-4-methoxy-pyrrolidin-1-yl]phenyl]ethyl]-4-methyl-3,4,6,7,9,9a-hexahydro-1H-pyrazino[1,2-a]pyrazin-2-yl]-3-fluoro-pyrazolo[1,5-a]pyridine-7-carbonitrile], the IC50 on human TLR7 was determined as 62 nM; against human TLR8, 39 nM.

Turning to `C[C@@H]1CN(c2cccc(CCN3CCN4[C@@H](C3)CN(c3ccc(C#N)c5ncccc35)C[C@H]4C)n2)CCN1` [Example 58, 5-[(4R,9aS)-4-methyl-8-[2-[6-[(3R)-3-methylpiperazin-1-yl]-2-pyridyl]ethyl]-3,4,6,7,9,9a-hexahydro-JH-pyrazino[1,2-a]pyrazin-2-yl]quinoline-8-carbonitrile], the values for the IC50 on human TLR7 and at human TLR8 were 20 nM and 40 nM, respectively.

In the case of `C[C@@H]1CN(c2ccc(C#N)c3ncccc23)C[C@@H]2CN(CCc3ccc(N4C[C@H]5NCCO[C@@H]5C4)nc3)CCN21` [Example 124, 5-[(4R,9aS)-8-[2-[6-[(4aR,7aR)-3,4,4a,5,7,7a-hexahydro-2H-pyrrolo[3,4-b][1,4]oxazin-6-yl]-3-pyridyl]ethyl]-4-methyl-3,4,6,7,9,9a-hexahydro-1H-pyrazino[1,2-a]pyrazin-2-yl]quinoline-8-carbonitrile], the values for the IC50 at human TLR7 and against human TLR8 were 14 nM and 51 nM, respectively.

For the molecule `C[C@@H]1CN(c2ccc(C#N)c3ncccc23)C[C@@H]2CN(CCc3ccc(N4C[C@@H](N)[C@@H](F)C4)cn3)CCN21` [Example 19, 5-[(4R,9aS)-8-[2-[5-[(3R,4S)-3-amino-4-fluoro-pyrrolidin-1-yl]-2-pyridyl]ethyl]-4-methyl-3,4,6,7,9,9a-hexahydro-1H-pyrazino[1,2-a]pyrazin-2-yl]quinoline-8-carbonitrile], the figures for the IC50 on human TLR7 and against human TLR8 were 10 nM and 31 nM, respectively.

With `[2H]c1ccc2c(N3C[C@@H]4CN(CCc5ccc(N6CC7(CN(C)C7)C6)nc5)CCN4[C@H](C)C3)ccc(C#N)c2n1` [Example 64, 5-[(4R,9aS)-4-methyl-8-[2-[6-(6-methyl-2,6-diazaspiro[3.3]heptan-2-yl)-3-pyridyl]ethyl]-3,4,6,7,9,9a-hexahydro-1H-pyrazino[1,2-a]pyrazin-2-yl]-2-deuterio-quinoline-8-carbonitrile], the IC50 on human TLR7 came to 23 nM; against human TLR8, 32 nM.

For the molecule `C[C@@H]1CN(c2ccc(C#N)n3ncc(F)c23)C[C@@H]2CN(CCc3ccc(N4CC(C)(N)C4)nc3)CCN21` [Example 74, 4-[(4R,9aS)-8-[2-[6-(3-amino-3-methyl-azetidin-1-yl)-3-pyridyl]ethyl]-4-methyl-3,4,6,7,9,9a-hexahydro-1H-pyrazino[1,2-a]pyrazin-2-yl]-3-fluoro-pyrazolo[1,5-a]pyridine-7-carbonitrile], the IC50 at human TLR7 was determined as 28 nM; against human TLR8 it was 62 nM.

For `C[C@@H]1CN(c2ccc(C#N)c3ncccc23)C[C@@H]2CN(Cc3cccc(N4CCNCC4)n3)CCN21` [Example 27, 5-[(4R,9aS)-4-methyl-8-[(6-piperazin-1-yl-2-pyridyl)methyl]-3,4,6,7,9,9a-hexahydro-1H-pyrazino[1,2-a]pyrazin-2-yl]quinoline-8-carbonitrile], the IC50 on human TLR7 was 21 nM; on human TLR8, 13 nM.

On to `[2H]c1ccc2c(N3C[C@@H]4CN(c5ncc(N6C[C@H]7NCCO[C@@H]7C6)cc5C)CCN4[C@@H](C)C3)ccc(C#N)c2n1` [Example 114, 5-[(4S,9aR)-8-[5-[(4aR,7aR)-3,4,4a,5,7,7a-hexahydro-2H-pyrrolo[3,4-b][1,4]oxazin-6-yl]-3-methyl-2-pyridyl]-4-methyl-3,4,6,7,9,9a-hexahydro-1H-pyrazino[1,2-a]pyrazin-2-yl]-2-deuterio-quinoline-8-carbonitrile], for which the IC50 at human TLR7 came to 2 nM; on human TLR8 it was 10 nM.
